Source: ChEMBL document CHEMBL1155123, “Synthesis and discovery of autophagy inducers for A549 and H460 lung cancer cells, novel 1-(2'-hydroxy-3'-aroxypropyl)-3-aryl-1H-pyrazole-5-carbohydrazide derivatives” (Bioorg Med Chem Lett, 2008)
One block for each compound: values may come before it. Activity calls are given as the source filed them. The rule behind the calls is not given here.

Experiments:
A549 [1] = assay: Antiproliferative activity against human A549 cells assessed as cell viability at 80 uM after 48 hrs by MTT assay; type: functional; conditions: A549, 48 h, read-out: Activity
NCI-H460 [2] = assay: Induction of autophagy in human H460 cells assessed as nuclear and acidic compartment morphology at 80 uM after 48 hrs; type: functional, cell-based
NCI-H460 [3] = assay: Induction of autophagy in human H460 cells assessed as nuclear and acidic compartment morphology at 80 uM after 24 hrs; type: functional, cell-based
A549 [4] = assay: Growth inhibition of human A549 cells after 48 hrs by MTT assay; type: functional, cell-based; conditions: A549, 48 h
A549 [5] = assay: Induction of autophagy in human A549 cells assessed as nuclear and acidic compartment morphology at 80 uM after 48 hrs; type: functional, cell-based
A549 [6] = assay: Antiproliferative activity against human A549 cells assessed as cell viability at 40 uM after 48 hrs by MTT assay relative to control; type: functional; conditions: A549, 48 h, read-out: Activity
NCI-H460 [7] = assay: Induction of apoptosis in human H460 cells assessed as nuclear and acidic compartment morphology at 80 uM; type: functional, cell-based
A549 [8] = assay: Antiproliferative activity against human A549 cells assessed as cell viability at 40 uM after 24 hrs by MTT assay; type: functional; conditions: A549, 24 h, read-out: Activity
NCI-H460 [9] = assay: Induction of necrosis in human H460 cells assessed as LDH release at 80 uM after 48 hrs; type: functional, cell-based
A549 [10] = assay: Induction of autophagy in human A549 cells assessed as nuclear and acidic compartment morphology at 10 to 80 uM after 24 hrs; type: functional, cell-based
HUVEC [11] = assay: Antiproliferative activity against HUVEC assessed as cell viability after 48 hrs by MTT assay; type: cell-based; conditions: human
A549 [12] = assay: Effect on morphological changes in human A549 cells at 10 to 80 uM after 48 hrs; type: functional, cell-based
A549 [13] = assay: Induction of necrosis in human A549 cells assessed as LDH release at 80 uM after 48 hrs; type: functional, cell-based
NCI-H460 [14] = assay: Induction of necrosis in human H460 cells assessed as LDH release at 80 uM after 24 hrs; type: functional, cell-based
A549 [15] = assay: Effect on morphological changes in human A549 cells at 10 to 80 uM after 24 hrs; type: functional, cell-based
A549 [16] = assay: Growth inhibition of human A549 cells after 96 hrs by MTT assay; type: functional, cell-based; conditions: A549, 96 h
HUVEC [17] = assay: Induction of HUVEC growth at 10 uM after 24 hrs by MTT assay; type: functional, cell-based; conditions: Homo sapiens
HUVEC [18] = assay: Antiproliferative activity against HUVEC assessed as cell viability after 24 hrs by MTT assay; type: cell-based; conditions: human
A549 [19] = assay: Induction of necrosis in human A549 cells assessed as LDH release at 80 uM after 24 hrs; type: functional, cell-based
A549 [20] = assay: Induction of apoptosis in human A549 cells assessed as nuclear and acidic compartment morphology at 80 uM; type: functional, cell-based
A549 [21] = assay: Antiproliferative activity against human A549 cells assessed as cell viability at 80 uM after 96 hrs by MTT assay; type: functional; conditions: A549, 96 h, read-out: Activity

Structure (SMILES): NNC(=O)c1cc(-c2ccc(Cl)cc2)nn1CC(O)COc1ccc(Cl)cc1 (centres undefined)
viability at 80 µM (A549 [1]): 29%
Activity (NCI-H460 [2]): Active
Activity (NCI-H460 [3]): Active
IC50 (A549 [4]): 32 µM
Activity (A549 [5]): Active
viability at 40 µM (A549 [6]): 56%
Activity (NCI-H460 [7]): inactive
viability at 40 µM (A549 [8]): 72%
Activity (NCI-H460 [9]): inactive
Activity (A549 [10]): Active
Activity (HUVEC [11]): Not Active
Activity (A549 [12]): Active
Activity (A549 [13]): inactive
Activity (NCI-H460 [14]): inactive
Activity (A549 [15]): Active
IC50 (A549 [16]): 27 µM
Activity (HUVEC [17]): Active
Activity (HUVEC [18]): Not Active
Activity (A549 [19]): inactive
Activity (A549 [20]): inactive
viability at 80 µM (A549 [21]): 6%

Structure (SMILES): NNC(=O)c1cc(-c2ccccc2)nn1CC(O)COc1ccc(Cl)cc1 (centres undefined)
viability at 80 µM (A549 [1]): 29%
Activity (NCI-H460 [2]): Active
Activity (NCI-H460 [3]): Active
IC50 (A549 [4]): 48 µM
Activity (A549 [5]): Active
viability at 40 µM (A549 [6]): 56%
Activity (NCI-H460 [7]): inactive
viability at 40 µM (A549 [8]): 72%
Activity (NCI-H460 [9]): inactive
Activity (A549 [10]): Active
Activity (HUVEC [11]): Not Active
Activity (A549 [12]): Active
Activity (A549 [13]): inactive
Activity (NCI-H460 [14]): inactive
Activity (A549 [15]): Active
IC50 (A549 [16]): 30 µM
Activity (HUVEC [18]): Not Active
Activity (A549 [19]): inactive
Activity (A549 [20]): inactive
viability at 80 µM (A549 [21]): 6%

Structure (SMILES): COc1ccc(-c2cc(C(=O)NN)n(CC(O)COc3ccc(Cl)cc3)n2)cc1 (centres undefined)
Activity (NCI-H460 [2]): Active
Activity (NCI-H460 [3]): Active
IC50 (A549 [4]): 39 µM
Activity (A549 [5]): Active
viability at 40 µM (A549 [6]): 40%
Activity (NCI-H460 [7]): inactive
viability at 40 µM (A549 [8]): 62%
Activity (NCI-H460 [9]): inactive
Activity (A549 [10]): Active
Activity (A549 [13]): inactive
Activity (NCI-H460 [14]): inactive
IC50 (A549 [16]): 35 µM
Activity (A549 [19]): inactive
Activity (A549 [20]): inactive

Structure (SMILES): NNC(=O)c1cc(-c2ccccc2)nn1CC(O)COc1ccc([N+](=O)[O-])cc1 (centres undefined)
Activity (NCI-H460 [2]): Active
Activity (NCI-H460 [3]): Active
IC50 (A549 [4]): 72 µM
Activity (A549 [5]): Active
Activity (NCI-H460 [7]): inactive
Activity (NCI-H460 [9]): inactive
Activity (A549 [10]): Active
Activity (A549 [13]): inactive
Activity (NCI-H460 [14]): inactive
IC50 (A549 [16]): 45 µM
Activity (A549 [19]): inactive
Activity (A549 [20]): inactive

The remaining compounds from weak to strong by IC50 (A549 [4]), led by results:

IC50 (A549 [4]): 74 µM
IC50 (A549 [16]): 40 µM
Structure (SMILES): COc1ccccc1OCC(O)Cn1nc(-c2ccc(Cl)cc2)cc1C(=O)NN (centres undefined)
Activity (NCI-H460 [2]): Active
Activity (NCI-H460 [3]): Active
Activity (A549 [5]): Active
Activity (NCI-H460 [7]): inactive
Activity (NCI-H460 [9]): inactive
Activity (A549 [10]): Active
Activity (A549 [13]): inactive
Activity (NCI-H460 [14]): inactive
Activity (A549 [19]): inactive
Activity (A549 [20]): inactive

IC50 (A549 [4]): 72 µM
IC50 (A549 [16]): 49 µM
Structure (SMILES): COc1ccccc1OCC(O)Cn1nc(-c2ccccc2)cc1C(=O)NN (centres undefined)
Activity (NCI-H460 [2]): Active
Activity (NCI-H460 [3]): Active
Activity (A549 [5]): Active
Activity (NCI-H460 [7]): inactive
Activity (NCI-H460 [9]): inactive
Activity (A549 [10]): Active
Activity (A549 [13]): inactive
Activity (NCI-H460 [14]): inactive
Activity (A549 [19]): inactive
Activity (A549 [20]): inactive

IC50 (A549 [4]): 70 µM
IC50 (A549 [16]): 51 µM
Structure (SMILES): COc1ccc(-c2cc(C(=O)NN)n(CC(O)COc3ccccc3OC)n2)cc1 (centres undefined)
Activity (NCI-H460 [2]): Active
Activity (NCI-H460 [3]): Active
Activity (A549 [5]): Active
Activity (NCI-H460 [7]): inactive
Activity (NCI-H460 [9]): inactive
Activity (A549 [10]): Active
Activity (A549 [13]): inactive
Activity (NCI-H460 [14]): inactive
Activity (A549 [19]): inactive
Activity (A549 [20]): inactive

IC50 (A549 [4]): 39 µM
IC50 (A549 [16]): 37 µM
Structure (SMILES): NNC(=O)c1cc(-c2ccc(Cl)cc2)nn1CC(O)COc1ccc([N+](=O)[O-])cc1 (centres undefined)
viability at 80 µM (A549 [1]): 29%
Activity (NCI-H460 [2]): Active
Activity (NCI-H460 [3]): Active
Activity (A549 [5]): Active
viability at 40 µM (A549 [6]): 56%
Activity (NCI-H460 [7]): inactive
viability at 40 µM (A549 [8]): 72%
Activity (NCI-H460 [9]): inactive
Activity (A549 [10]): Active
Activity (A549 [13]): inactive
Activity (NCI-H460 [14]): inactive
Activity (A549 [19]): inactive
Activity (A549 [20]): inactive
viability at 80 µM (A549 [21]): 6%
